Laboratory results reported in article PMC11945486, “TAS1R2/TAS1R3 Single-Nucleotide Polymorphisms Affect Sweet Taste Receptor Activation by Sweeteners: The SWEET Project” (Nutrients, 2025).
No end group written: not given here.

Molecular target: T1, human TAS1R2-WT/TAS1R3-S551N (Homo sapiens, UniProt Q7RTX0+Q8TE23, S551N)
T1 construct: expressed in transfected cells; host or cells: HEK293T stably expressing Gα16gust44
T1 sequence (Q8TE23 20-839): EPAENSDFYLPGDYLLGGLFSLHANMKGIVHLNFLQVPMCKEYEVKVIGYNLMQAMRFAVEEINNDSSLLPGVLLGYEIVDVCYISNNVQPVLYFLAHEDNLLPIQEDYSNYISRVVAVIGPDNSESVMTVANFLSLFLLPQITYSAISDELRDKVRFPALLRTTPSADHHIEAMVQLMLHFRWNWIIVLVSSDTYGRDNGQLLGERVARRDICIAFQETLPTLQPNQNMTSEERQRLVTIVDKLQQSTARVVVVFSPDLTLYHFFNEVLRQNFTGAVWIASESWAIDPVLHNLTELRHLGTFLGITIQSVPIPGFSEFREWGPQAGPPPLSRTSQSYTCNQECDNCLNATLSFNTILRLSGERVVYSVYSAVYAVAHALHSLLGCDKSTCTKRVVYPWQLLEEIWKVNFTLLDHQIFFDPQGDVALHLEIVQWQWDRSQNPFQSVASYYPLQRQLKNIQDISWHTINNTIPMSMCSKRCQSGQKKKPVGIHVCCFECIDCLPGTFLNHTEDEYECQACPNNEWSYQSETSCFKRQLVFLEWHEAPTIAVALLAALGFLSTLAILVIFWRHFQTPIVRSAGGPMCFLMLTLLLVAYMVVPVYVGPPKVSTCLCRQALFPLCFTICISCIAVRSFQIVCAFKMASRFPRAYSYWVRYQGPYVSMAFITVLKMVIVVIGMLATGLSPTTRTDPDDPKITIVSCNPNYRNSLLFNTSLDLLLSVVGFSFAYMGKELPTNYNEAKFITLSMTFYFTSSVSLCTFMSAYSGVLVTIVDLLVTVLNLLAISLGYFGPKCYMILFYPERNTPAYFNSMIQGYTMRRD
T1 sequence (Q7RTX0 21-852 S551N): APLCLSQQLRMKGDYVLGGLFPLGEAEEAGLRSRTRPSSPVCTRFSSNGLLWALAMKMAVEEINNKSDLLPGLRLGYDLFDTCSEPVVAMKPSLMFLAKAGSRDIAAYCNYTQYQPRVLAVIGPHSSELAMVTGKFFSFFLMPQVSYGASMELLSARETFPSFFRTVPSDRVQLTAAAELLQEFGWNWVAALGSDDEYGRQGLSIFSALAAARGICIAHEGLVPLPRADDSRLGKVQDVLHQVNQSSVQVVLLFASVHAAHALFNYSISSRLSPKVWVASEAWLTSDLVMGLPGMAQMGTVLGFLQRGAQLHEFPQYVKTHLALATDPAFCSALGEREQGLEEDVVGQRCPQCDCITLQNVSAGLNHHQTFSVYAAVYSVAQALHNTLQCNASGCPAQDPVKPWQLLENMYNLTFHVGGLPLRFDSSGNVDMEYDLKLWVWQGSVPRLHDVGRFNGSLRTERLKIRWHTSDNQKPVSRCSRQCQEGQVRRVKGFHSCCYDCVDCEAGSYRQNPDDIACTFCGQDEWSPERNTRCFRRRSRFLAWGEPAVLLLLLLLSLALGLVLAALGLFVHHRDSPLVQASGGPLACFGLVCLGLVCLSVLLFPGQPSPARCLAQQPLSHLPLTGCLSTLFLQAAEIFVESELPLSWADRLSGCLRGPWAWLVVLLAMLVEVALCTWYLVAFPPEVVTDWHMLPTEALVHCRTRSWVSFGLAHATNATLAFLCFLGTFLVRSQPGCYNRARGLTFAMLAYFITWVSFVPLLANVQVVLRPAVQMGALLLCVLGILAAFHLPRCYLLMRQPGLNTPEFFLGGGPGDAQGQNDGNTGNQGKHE
Experiment: Calcium mobilisation assay, TAS1R2-WT with TAS1R3 variant S551N
Format: cell-based
Settings: for Max ΔF/F0: maximal signal amplitude; for Max ΔF/F0 / EC50: "-": no activation
Excerpt: The coding sequences for TAS1R2 and TAS1R3 were commercially synthesised, and the human codon was optimised for expression in human cells. The coding sequences of human TAS1R2 and TAS1R3 were subcloned and inserted into the mammalian expression vectors pcDNA6/myc-HisA and pcDNA4/myc-HisA (Invitrogen; Thermo Fisher Scientific; Illkirch, France) between the EcoRI and NotI restriction sites, generating the plasmids pcDNA6-TAS1R2 and pcDNA4-TAS1R3, respectively. To increase protein expression in mammalian cells, an upstream start codon was used, which was a sequence called MAX, corresponding to the QBI SP163 element also described in pcDNA4-HisMax (Invitrogen; Thermo Fisher Scientific; Illkirch, France). To measure the expression level of the receptor by immunohistochemistry, we used the FLAG sequence ([…]) in the C-terminal position, which encodes the FLAG tag epitope. SNP variants of TAS1R2 and TAS1R3 were constructed based on […], respectively, using site-directed mutagenesis (Genewiz; Leipzig, Germany).
The HEK293T cells were kindly provided by Jay P. Slack (Givaudan Flavors Corporation; Cincinnati, OH, USA). HEK293T cells stably transfected with Gα16gust44 [43, 67] were seeded in poly-D-lysine-coated clear-bottom black 96-well plates (0.35 × 10^5 cells/well) in high-glucose DMEM supplemented with 2 mM GlutaMAX, 10% dialysed foetal bovine serum with penicillin/streptomycin and G418 (400 μg/mL) at 37 °C and 6.3% CO2 in a humidified atmosphere as previously reported. […] As a negative control, HEK293T cells were mock-transfected with the empty expression vector. After a further 24 h of incubation, the HEK293T cells were washed with C1 buffer (130 mM NaCl, 5 mM KCl, 10 mM HEPES pH 7.4 and 2 mM CaCl2). The 96-well plates containing the cells were then stimulated with sweet-tasting compounds. […] Different concentration ranges were tested depending on the sweet compound injected. The Ca^2+ changes were expressed as fractional changes in fluorescent light intensity: ΔF/F = (F − F0)/F0, where F was the fluorescent light intensity at each point, and F0 was the value of emitted fluorescent light prior to stimulus application. To calculate dose–response relationships, the changes in fluorescence upon stimulus application were averaged, mock-subtracted and baseline-corrected. The dose–response data obtained were adjusted using a 4-parameter logistic equation. The half-maximal effective concentrations (EC50 values) and maximal signal amplitudes were calculated using SigmaPlot software (version 15.0) (Systat Software; San Jose, CA, USA).
For in vitro calcium mobilisation assay performed on hTAS1R2-SNPs, hTAS1R3-SNPs and mTAS1R3-I60T, 6 to 7 concentrations were tested for each sweet compound, plus buffer alone. All concentration–receptor combinations were measured in duplicate, and each experiment was repeated at least 4 times (8 wells/concentration). Results were expressed for each concentration as ΔF/F mean ± SEM and represented as dose–response curves.

## C[C@H](CC[C@@H](O[C@@H]1O[C@H](CO[C@@H]2O[C@H](CO)[C@@H](O)[C@H](O)[C@H]2O)[C@@H](O)[C@H](O)[C@H]1O[C@@H]1O[C@H](CO)[C@@H](O)[C@H](O)[C@H]1O)C(C)(C)O)[C@H]1CC[C@@]2(C)[C@@H]3CC=C4[C@@H](CC[C@H](O[C@@H]5O[C@H](CO[C@@H]6O[C@H](CO)[C@@H](O)[C@H](O)[C@H]6O)[C@@H](O)[C@H](O)[C@H]5O)C4(C)C)[C@]3(C)[C@H](O)C[C@]12C [Mogroside V, mogroside V]
  R1 = Variant EC50/WT EC50: 3.6
  Max ΔF/F0: 0.03

## C=C(C)[C@@H]1CC=C(/C=N/O)CC1 [Perillartine, perillartine]
  R1 = Variant EC50/WT EC50: 3.6
  EC50: 49.2 ± 13.6 µM
  Max ΔF/F0: 0.52 ± 0.04

## brazzein (QDKCKKVYENYPVSKCQLANQCNYDCKLDKHARSGECFYDEKRNLQCICDYCEY; ends and bridges not checked; cysteine pairing not given here; UniProt P56552 1-54, looked up) [sweet-tasting protein obtained by recombinant production using the yeast Pichia pastoris]
  R1 = Variant EC50/WT EC50: 21.1
  Max ΔF/F0: 0.21 ± 0.21

## thaumatin
  R1 = Variant EC50/WT EC50: 1.7
  Max ΔF/F0: 0.25 ± 0.01

B1: thaumatin (protein)
chain: ATFEIVNRCSYTVWAAASKGDAALDAGGRQLNSGESWTINVEPGTKGGKIWARTDCYFDDSGSGICKTGDCGGLLRCKRFGRPPTTLAEFSLNQYGKDYIDISNIKGFNVPMDFSPTTRGCRGVRCAADIVGQCPAKLKAPGGGCNDACTVFQTSEYCCTTGKCGPTEYSRFFKRLCPDAFSYVLDKPTTVTCPGSSNYRVTFCPTA
modifications: Eight disulfides
notes: sweet-tasting plant protein, E957
  EC50: 17.4 ± 2.2 µM
